Results from patent publication US10059655B2, “Lipids and lipid compositions for the delivery of active agents” (priority 2013, dated 2018).

Key:
[1] = Measurement of plasmid DNA encapsulation in lipid nanoparticles (Quant-iT Ribogreen); assay type: physicochemical
Procedure: All equipment and disposable supplies are certified free of RNase activity by the manufacturer or rendered RNase free by use of the RNaseZap reagent (LifeTechnologies). Plasmid is encapsulated at a cationic lipid amine to DNA phosphate (N:P) molar ratio of 4:1. Lipids (cationic lipid, DSPC, cholesterol and lipidated PEG) are dissolved in ethanol. The molar ratios are 40:10:38:2, respectively. The mixture is sonicated briefly, then gently agitated for 5 minutes and then maintained at 37° C. until use. Plasmid is exchanged into citrate buffer pH 6.0 by use of Amicon Ultra-15 centrifugal concentrators, and the final concentration is adjusted to 0.053 mg/ml and held at 37° C. until use. An equal volume of lipids in ethanol, plasmid in citrate buffer, and citrate buffer alone are drawn into disposable syringes. Tubing leading from syringes containing lipids and DNA are attached to the T junction, and tubing leading from the syringe containing citrate buffer alone is paired with the tubing exiting the T-junction over a collection vessel containing a stir bar on an active stir plate. Syringes are placed in a syringe pump set to expel contents at a flow rate of 1 ml per minute. The pump is activated, and the collected DNA in lipid nanoparticles is transferred to SnakeSkin dialysis tubing (10,000 MWCO, Thermo Scientific). Material is dialyzed against RNAse- and pyrogen-free 1× phosphate buffered saline overnight at 4° C.
Percent encapsulation of plasmid DNA in lipid nanoparticles is determined using the Quant-iT Ribogreen RNA Assay kit (Life Technologies). The LNP-DNA suspension is assayed in buffer (DNA outside the particle), and buffer plus Triton X-100 detergent (total DNA). The difference calculated is the DNA inside the particle. Prepare a 1000 ng/mL stock using unpackaged plasmid and use this to generate a standard curve (0 ng/ml, 15.63-1000 ng/ml) in TE and TE+0.75% Triton X-100. Prepare LNP-plasmid samples in TE buffer and TE buffer+0.75% Triton X-100 with appropriate dilution so that reading is in the range of standard curve (25 fold). In a 384-well plate (Costar non-treated #3573) add 0.04 ml of standard (in duplicate) or sample (in triplicate) per well. Dilute Ribogreen reagent 240-fold in TE buffer and add 0.06 ml per well. Mix contents of wells and measure fluorescence (excitation=480 nm, emission=520 nm). Subtract background values (no DNA) from standard and test sample values and determine the concentrations of DNA in the samples using the standard curves. Determine the percent encapsulation of the sample by dividing the difference in concentrations between sample+triton and sample in buffer alone by the sample+triton concentration.

[2] = system: hLeptin; experiment: Human leptin in mouse plasma (ELISA) after subcutaneous injection of encapsulated leptin mRNA; assay type: in vivo; conditions: C57 mice
Procedure: Human leptin in mouse plasma was measured by ELISA. Antibodies purchased from the R&D Systems duoset (Cat# DY398E, part#840279 for capture antibody and part#840280 for detection antibody) were reconstituted using PBS and titered, again using PBS. The capture antibody was coated at 4 ug/ml in 30 ul/well on a white Nunc® Maxisorp 384 well plate (Cat#460372). After an overnight incubation at room temperature the capture antibody was aspirated and the plate blocked for 2 hours at room temperature with 90 ul/well of KPL milk blocker (Cat#50-82-00). Once the incubation was completed the plate was aspirated and recombinant standards and samples were added to the plate at 30 ul/well for 2 hours at 37° C. while shaking at 600 rpm. Sample/standard dilutions were made using casein sample diluent. Washing/aspiration 3 times with 100 ul/well followed, using Teknova plate wash solution (Cat# P1192). […] The plate was quickly read using a SpectramaxM5 plate reader with a 50 ms integration time. […]
Prior to subcutaneous injection, mouse body weights were recorded and diet weighted, with mice grouped according to their body weights. […]
On day 0, animals were weighed and sorted according to average body weight. ice were dosed at 9 AM and blood was taken at 9 AM on day 0. Blood was also taken at 9 AM on each of days 1 and 2 and assessed for leptin protein levels. Body weight and food intake were also recorded.

[3] = system: plasma Factor VII enzyme activity; experiment: Factor VII Activity Assay after IV dosing of formulated Factor VII siRNA in mice; assay type: in vivo, mouse; conditions: 0.03 mpk, CD-1 mice, about 48 hours after injection
Procedure: Female CD-1 mice were received from Harlan Labs and maintained on standard lab chow and water ad libitum. The animals weighed approximately 25 gr at time of dosing. Formulated Factor VII siRNA was administered as a single dose intravenously via the lateral tail vein. Approximately 48 hours after injection, the mice were euthanized by CO2 inhalation followed by exsanguination through the vena cava.
Plasma collected from injected mice was assayed for Factor VII enzyme activity using the Biophen FVII kit from Hyphen Biomedical (catalog number 221304). An assay standard curve was prepared using pooled plasma aliquots from the vehicle control animals. All samples were diluted to fall within the linear range of the standard curve and Factor VII activity relative to control plasma was reported.
Lipid nanoparticles comprising lipid compounds of formula (I) and the FVII siRNA duplex sequence listed above were tested in the Factor VII Activity Assay. The results of this assay are given in Table 3 4 below as a percent knock down of plasma Factor VII enzyme activity at a dose of 0.3 mg/kg and 0.03 mg/kg.

[4] = system: RSV F protein; experiment: RSV immunogenicity: F-specific IgG titers after IM vaccination with liposome-formulated self-replicating RNA; assay type: in vivo; conditions: IM days 0 and 21, BALB/c mice, two weeks after two immunizations

Compound	% Encap. ([1]; hLep plasmid) [%]	% Encap. ([1]; pDNA) [%]	Expression of protein following SC injection of encapsulated mRNA: hLeptin ([2]; 0.4 mpk) [ng/mL]	FVII knock-down (%) following IV injection of encapsulated siRNA [3] [%/0.03 mpk]	Immunogenicity (2wp2; log10 IgG titers) ([4]; 0.1 ng replicon RNA) [log10 IgG titers]	Immunogenicity (2wp2; log10 IgG titers) ([4]; 1 ng replicon RNA) [log10 IgG titers]	Expression of protein following SC injection of encapsulated mRNA: hLeptin ([2]; 0.6 mpk) [ng/mL]
CCCCC/C=C\C/C=C\CCCCCCCC(=O)OCC(COC(=O)CCCCCCC/C=C\C/C=C\CCCCC)COC(=O)C1(C)CCN(C)C1 (centres unmarked) [Example 1, (9Z,9′Z,12Z,12′Z)-2-(((1,3-dimethylpyrrolidine-3-carbonyl)oxy)methyl)propane-1,3-diyl bis(octadeca-9,12-dienoate)]	93.0	94.7	2.5	69	3.99	4.08	
CCCCC/C=C\C/C=C\CCCCCCCC(=O)OCC(COC(=O)CCC(OCCCCCCCC)OCCCCCCCC)COC(=O)OCCCN(CC)CC (centres unmarked) [Example 13, (9Z,12Z)-3-((4,4-bis(octyloxy)butanoyl)oxy)-2-((((3-(diethylamino)propoxy)carbonyl)oxy)methyl)propyl octadeca-9,12-dienoate]	95.9	98.2		97			
CCCCC/C=C\C/C=C\CCCCCCCC(=O)OCC(COC(=O)CCC(OCCCCCCCC)OCCCCCCCC)COC(=O)OCC1CCCN(CC)C1 (centres unmarked) [Example 15, (9Z,12Z)-3-((4,4-bis(octyloxy)butanoyl)oxy)-2-(((((1-ethylpiperidin-3-yl)methoxy)carbonyl)oxy)methyl)propyl octadeca-9,12-dienoate]	93.6	93.2			4.45	4.63	6.2
